Experimental data taken from patent US11161864B2, “Sting agonists” (Venenum Biodesign, LLC, priority 2018, dated 2021).

Legend:
[1] = target: wild-type (WT) truncated human STING protein, amino acids 155-379 (Homo sapiens (Human), UniProt Q86WV6, H232R); assay: Human WT STING [3H] 2′,3′-cGAMP scintillation proximity competition binding assay; conditions: read-out: Human WT Binding IC50
Source text: (§1) A human STING [^3H] 2′,3′-cGAMP scintillation proximity competition binding assay was utilized to detect binding of compounds to STING protein. […] The protein encoding plasmid contained a HIS tag, followed by an Avi tag and then a SUMO tag, which were followed by the STING coding sequence within the pET-28a (+) vector. The plasmid was transfected into a BL21 (DE3)/BirA E. coli co-expression strain. Protein was purified from the bacterial lysate using a cobalt-affinity column. The purified protein was dialyzed against PBS and then 20% glycerol was added prior to storage at −80° C.
(§2) 2′,3′-cGAMP in assay buffer (50 mM Tris pH 7.5, 100 mM NaCl, 0.1% Fatty Acid Free BSA). Test compounds (2.5 μL) were added to the plate first followed by a 25 μL mixture of STING protein, streptavidin PVT SPA beads (Perkin Elmer) and 10 μL [^3H] 2′,3′-cGAMP. Plates were incubated at room temperature for 18 hrs and read on a Wallac MicroBeta TriLux (Perkin Elmer).

[2] = target: AQ variant of truncated human STING protein, amino acids 155-379 (Homo sapiens (Human), UniProt Q86WV6, G230A/H232R/R293Q); assay: Human AQ STING [3H] 2′,3′-cGAMP scintillation proximity competition binding assay; conditions: read-out: Human AQ Binding IC50
Sequence of AQ variant of truncated human STING protein, amino acids 155-379 (Q86WV6 155-379 G230A/H232R/R293Q): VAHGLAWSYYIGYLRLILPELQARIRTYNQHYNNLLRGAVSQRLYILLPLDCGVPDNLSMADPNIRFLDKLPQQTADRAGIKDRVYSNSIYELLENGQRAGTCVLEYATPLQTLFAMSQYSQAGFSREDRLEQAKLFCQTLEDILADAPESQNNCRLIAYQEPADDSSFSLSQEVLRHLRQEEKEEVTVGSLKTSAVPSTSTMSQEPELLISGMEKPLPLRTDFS
Source text: as §1, §2

human STING (WT) = human STING (WT) (Homo sapiens (Human), UniProt Q86WV6, H232R); assay: Thermal shift binding assay, human STING (WT); conditions: 100 μM compound, 5 μM STING protein; read-out: Human STING(WT) Tm Shift
Sequence of human STING (WT) (Q86WV6 155-379 H232R): as the sequence (Q86WV6 155-379 G230A/H232R/R293Q) above, with A76G, Q139R counted along it

[3] = target: human STING (G230A-R293Q) (Homo sapiens (Human), UniProt Q86WV6, G230A/H232R/R293Q); assay: Thermal shift binding assay, human STING (AQ); conditions: 100 μM compound, 5 μM STING protein; read-out: Human STING(AQ) Tm Shift
Sequence of human STING (G230A-R293Q) (Q86WV6 155-379 G230A/H232R/R293Q): as the sequence (Q86WV6 155-379 G230A/H232R/R293Q) above

human STING (R232H) = human STING (R232H) (Homo sapiens, UniProt Q86WV6); assay: Thermal shift binding assay, human STING (R232H); conditions: 100 μM compound, 5 μM STING protein; read-out: Human STING(R232H) Tm Shift
mouse STING = mouse STING (Mus musculus (Mouse), UniProt Q3TBT3); assay: Thermal shift binding assay, mouse STING; conditions: 100 μM compound, 5 μM STING protein; read-out: Mouse STING Tm Shift
Sequence of mouse STING (Q3TBT3 154-378): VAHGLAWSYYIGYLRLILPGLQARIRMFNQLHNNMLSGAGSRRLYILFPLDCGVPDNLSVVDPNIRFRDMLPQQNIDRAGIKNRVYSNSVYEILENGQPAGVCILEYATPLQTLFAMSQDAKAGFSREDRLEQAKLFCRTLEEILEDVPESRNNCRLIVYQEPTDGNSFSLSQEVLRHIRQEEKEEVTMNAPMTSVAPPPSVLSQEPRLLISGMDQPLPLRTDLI

[4] = tested on: STING pathway, THP1 cells; assay: Human IFN-α/β induction assay (THP1 supernatants on HEK-Blue IFN-α/β reporter cells); format: cell-based; conditions: THP1 cells 5 hrs, HEK-Blue reporter cells 24 hrs
Protocol: Genetically engineered human type-1 Interferons (IFN-α/β) sensor cells-HEK Blue™ IFNα/β cells (Invivogen) were employed to measure the type-1 IFNs produced by THP1 cells that are treated with activators of STING. The human embryonic (HEK) Blue™ cells are specially designed to monitor the activation of JAK/STAT pathway induced by type 1 IFNs. Briefly, THP1 cells are treated with compounds for 5 hrs. In the second step, supernatants of THP1 cells are transferred to HEK Blue™ IFNα/β reporter cells and incubated for 24 hrs. The secreted embryonic alkaline phosphatase (SEAP) activity in the supernatants of HEK blue IFNα/3 reporter cells is measured and used to determine the quantities of IFNs.
HEK-Blue IFN-α/β reporter cells (Invivogen) were used to measure the secretion of IFN-α/β into culture supernatants of THP1 cells following STING pathway activation. In the first step, THP1 cells were cultured in presence of STING activators for 5 hrs at 37° C., in a 5% CO2 tissue culture incubator, which facilitates the release of IFN-α/β into the supernatants. In the second step, cell supernatants from THP1 cells were transferred to HEK-Blue IFN-α/β reporter cells and incubated at 37° C., in a 5% CO2 incubator for 24 hrs. HEK-Blue IFN-α/β reporter cells are specifically designed to monitor the activation of JAK-STAT pathway activation by type 1 IFNs. These cells express a secreted embryonic alkaline phosphatase (SEAP) reporter gene under the control of ISG54 promoter, which is a well-known interferon stimulatory gene activated by type 1 IFNs. Upon IFN-α/β stimulation, HEK-Blue IFN-α/β reporter cells activate the JAK-STAT pathway and subsequently the expression of the reporter gene. SEAP which is secreted in the supernatant is easily detectable using alkaline phosphatase detection medium (Quanti-Blue reagent from Invivogen).
These assays were run by adding 2 μL of compound stock solution to tissue culture treated 384-well plates with electronic pipettes. Compounds were diluted in autoclaved sterile water, initially spotted on the intermediate dilution plate and then to the assay plate. […]

[5] = tested on: STING signaling, RAW-Dual reporter cells; assay: Measurement of mouse IFN-β (ELISA); format: cell-based; conditions: Mus musculus, […]
Source text: Mouse Interferon-β (IFN-β) in the supernatants of murine macrophages treated with STING activators was quantified using sandwich enzyme linked immunosorbent assay (ELISA). Briefly, IFN-β binds to plates coated with antibody and detection is accomplished using a detection antibody followed by streptavidin conjugated to horseradish peroxidase. Tetramethyl-benzidine is used as the substrate in this kit (PBL Assay Science). […] In this invention, mouse IFN-β ELISA is used to determine the potency of compound on STING pathway activation in mouse macrophages.
Murine macrophage derived cell line RAW-Dual reporter cells (Invivogen) were used to measure the IFN-β produced by STING signaling activation. Briefly, 20,000 cells in 27 μL were seeded into tissue culture treated 384-well plate that contained 3 μL of test compound. Cells were incubated at 37° C., in a 5% CO2 incubator for 5.5 hours. Supernatants from treated cells were diluted 20-fold and prior to measurement of IFN-β levels using ELISA kit (PBL Assay Science). 100 μL of diluted sample was added to ELISA plate. Plates were incubated at RT for 1 hour with shaking at 650 rpm. Post incubation, samples were aspirated from wells and the wells were washed 4 times. Diluted antibody (50 μL) was added to plates and incubated at RT for 30 minutes with shaking, followed by aspiration of antibody and 4× washes. Diluted HRP (horseradish peroxidase) solution (50 μL) was added and incubated for 10 minutes, followed by aspiration of the solution and 4× wash steps. After the final wash steps, plates were incubated with 100 μL of TMB (tetramethyl benzidine) substrate for 10 minutes, followed by addition of 100 μL of stop solution and plates were read on Envision plate reader for optical density.

[6] = tested on: STING pathway genes, THP1 Dual (HAQ) human cells; assay: qRT-PCR assay, THP1 Dual (HAQ) human cells; format: cell-based
MC-38 tumor [7] = assay: MC-38 tumor bearing mice treated with Example 1C and anti-PD-1, anti-PD-L1, anti-CTLA4; format: in vivo, C57BL/6J mice; conditions: for #Tumor Free Mice after Treatment: 10 animals/group
Source text: The animals were terminated when the tumor size reached 2,000 mm^3.

MC-38 tumor [8] = assay: Treatment of MC-38 tumors with Example 1C and radiotherapy; format: in vivo, C57BL/6J mice; conditions: for #Tumor Free Mice after Treatment: 10 animals/group
Source text: Tumors grew for 7 days to an average size of 100 mm^3. […] On Days −2, −1 and 0 received 5 Gy of radiation targeted to the tumor using the Small Animal Radiation Research Platform (SARRP) manufactured by Xstrahl Inc. Radiotherapy treatments were given according to the outline in Table 18. […] Radiotherapy treatments were given according to the outline in Table 19.

MC-38 tumor [9] = assay: MC-38 tumor bearing mice treated with Example 1C and anti-PD-1
CT-26 tumor = CT-26 tumor bearing mice, intra-tumoral treatment and re-challenge; conditions: for Number of surviving mice: 50 μg intra-tumoral Days 0, 3, 7; for Number of surviving mice in the re-challenge: mice with complete regression after 50 μg, re-challenged with CT-26, no further treatment
[10] = CTLA4 + PD-L1 (5 + 5 mg/kg) + 5 μg Example 1C
[11] = Iso Ab (10 mg/kg) + 5 μg Example 1C
[12] = PD1 + PD-L1 (5 + 5 mg/kg) + 5 μg Example 1C
[13] = Example 1C 5 μg IT Day 0, 3, 7, 14, no RT
[14] = RT (5 Gy) Day −1, 0 / Example 1C 5 μg IT Day 0, 3, 7, 14
[15] = RT (5 Gy) Day −2, −1, 0 / Example 1C 5 μg IT Day 0, 3, 7, 14

Sequence of wild-type (WT) truncated human STING protein, amino acids 155-379 (Q86WV6 155-379 H232R): as the sequence (Q86WV6 155-379 G230A/H232R/R293Q) above, with A76G, Q139R counted along it

With Nc1nc2c(ncn2[C@@H]2O[C@@H]3COP(=O)(S)OCCn4c(nc5cncnc54)COP(=O)(S)O[C@@H]2[C@@H]3F)c(=O)[nH]1 (single isomer, unassigned) [Example 1C] as the compound, how does the IC50 [1] read?
The IC50 was less than 1000 nM.

What about the IC50 [2] of the same compound?
The IC50 was less than 1000 nM.

What about the ΔTm at 100 µM (human STING (WT)) of the same compound?
The ΔTm at 100 µM was 10.1 to 20 °C.

What about the ΔTm at 100 µM [3] of the same compound?
The ΔTm at 100 µM was greater than 20 °C.

What about the ΔTm at 100 µM (human STING (R232H)) of the same compound?
Its ΔTm at 100 µM is 5 to 10 °C.

And the ΔTm at 100 µM (mouse STING)?
Its ΔTm at 100 µM is greater than 20 °C.

And the EC50 [4]?
Its EC50 is less than 5000 nM.

What about the EC50 [5] of the same compound?
The EC50 was less than 5000 nM.

What about the “increase in CXCL10” value [6] of the same compound?
Its value is 1000 fold.

What about the “increase in IL-6 compared to Control” value [6] of the same compound?
Its value is 300 fold.

What about the “increase of IFN-β mRNA compared to ADU-S100” value [6] of the same compound?
The value was 30 fold.

And the “increase of IFN-β mRNA compared to Control” value [6]?
The value was 4000 fold.

What about the “#Tumor Free Mice after Re-challenge” value (MC-38 tumor [7]; [10]) of the same compound?
Its value is 6/6.

What about the “#Tumor Free Mice after Treatment” value (MC-38 tumor [7]; [10]) of the same compound?
Its value is 6/6.

And the “#Tumor Free Mice after Re-challenge” value (MC-38 tumor [7]; [11])?
The value was 1.

And the “#Tumor Free Mice after Treatment” value (MC-38 tumor [7]; [11])?
The value was 2.

What about the “#Tumor Free Mice after Re-challenge” value (MC-38 tumor [7]; [12]) of the same compound?
Its value is 5.

What about the “#Tumor Free Mice after Treatment” value (MC-38 tumor [7]; [12]) of the same compound?
Its value is 8.

What about the “#Tumor Free Mice after Re-challenge” value (MC-38 tumor [8]; [13]) of the same compound?
Its value is 0/0.

What about the “#Tumor Free Mice after Treatment” value (MC-38 tumor [8]; [13]) of the same compound?
The value was 0/0.

What about the “#Tumor Free Mice after Re-challenge” value (MC-38 tumor [8]; [14]) of the same compound?
The value was 3.

What about the “#Tumor Free Mice after Treatment” value (MC-38 tumor [8]; [14]) of the same compound?
The value was 4.

And the “#Tumor Free Mice after Re-challenge” value (MC-38 tumor [8]; [15])?
Its value is 7.

What about the “#Tumor Free Mice after Treatment” value (MC-38 tumor [8]; [15]) of the same compound?
Its value is 8.

And the “Number of surviving mice” value (MC-38 tumor [9]; 5 μg Example 1C + 10 mg/kg Anti-PD-1, Day 0)?
The value was 10/10.

What about the “Number of surviving mice” value (MC-38 tumor [9]; 5 μg Example 1C + 10 mg/kg Anti-PD-1, Day 3) of the same compound?
Its value is 10/10.

And the “Number of surviving mice” value (MC-38 tumor [9]; 5 μg Example 1C + 10 mg/kg Anti-PD-1, Day 6)?
Its value is 10/10.

And the “Number of surviving mice” value (MC-38 tumor [9]; 5 μg Example 1C + 10 mg/kg Anti-PD-1, Day 10)?
The value was 10/10.

What about the “Number of surviving mice” value (MC-38 tumor [9]; 5 μg Example 1C + 10 mg/kg Anti-PD-1, Day 14) of the same compound?
The value was 10/10.

What about the “Number of surviving mice” value (MC-38 tumor [9]; 5 μg Example 1C + 10 mg/kg Anti-PD-1, Day 17) of the same compound?
The value was 10/10.

What about the “Number of surviving mice” value (MC-38 tumor [9]; 5 μg Example 1C + 10 mg/kg Anti-PD-1, Day 21) of the same compound?
The value was 10/10.

What about the “Number of surviving mice” value (MC-38 tumor [9]; 5 μg Example 1C + 10 mg/kg Anti-PD-1, Day 24) of the same compound?
The value was 10/10.

What about the “Number of surviving mice” value (MC-38 tumor [9]; 5 μg Example 1C + 10 mg/kg Anti-PD-1, Day 27) of the same compound?
Its value is 9/10.

And the “Number of surviving mice” value (MC-38 tumor [9]; 5 μg Example 1C + 10 mg/kg Anti-PD-1, Day 30)?
Its value is 8/10.

What about the “Number of surviving mice” value (MC-38 tumor [9]; 5 μg Example 1C + 10 mg/kg Anti-PD-1, Day 34) of the same compound?
Its value is 7/10.

And the “Number of surviving mice” value (MC-38 tumor [9]; 5 μg Example 1C intra-tumoral Days 0, 3, 7, Day 0)?
Its value is 10/10.

What about the “Number of surviving mice” value (MC-38 tumor [9]; 5 μg Example 1C intra-tumoral Days 0, 3, 7, Day 3) of the same compound?
Its value is 10/10.

And the “Number of surviving mice” value (MC-38 tumor [9]; 5 μg Example 1C intra-tumoral Days 0, 3, 7, Day 6)?
Its value is 10/10.

And the “Number of surviving mice” value (MC-38 tumor [9]; 5 μg Example 1C intra-tumoral Days 0, 3, 7, Day 10)?
The value was 10/10.

What about the “Number of surviving mice” value (MC-38 tumor [9]; 5 μg Example 1C intra-tumoral Days 0, 3, 7, Day 14) of the same compound?
The value was 10/10.

And the “Number of surviving mice” value (MC-38 tumor [9]; 5 μg Example 1C intra-tumoral Days 0, 3, 7, Day 17)?
Its value is 10/10.

What about the “Number of surviving mice” value (MC-38 tumor [9]; 5 μg Example 1C intra-tumoral Days 0, 3, 7, Day 21) of the same compound?
The value was 10/10.

What about the “Number of surviving mice” value (MC-38 tumor [9]; 5 μg Example 1C intra-tumoral Days 0, 3, 7, Day 24) of the same compound?
The value was 10/10.

What about the “Number of surviving mice” value (MC-38 tumor [9]; 5 μg Example 1C intra-tumoral Days 0, 3, 7, Day 27) of the same compound?
Its value is 7/10.

What about the “Number of surviving mice” value (MC-38 tumor [9]; 5 μg Example 1C intra-tumoral Days 0, 3, 7, Day 30) of the same compound?
Its value is 3/10.

And the “Number of surviving mice” value (MC-38 tumor [9]; 5 μg Example 1C intra-tumoral Days 0, 3, 7, Day 34)?
Its value is 1/10.

And the “Number of surviving mice” value (CT-26 tumor; Day 0)?
Its value is 10/10.

What about the “Number of surviving mice” value (CT-26 tumor; Day 3) of the same compound?
The value was 10/10.

What about the “Number of surviving mice” value (CT-26 tumor; Day 7) of the same compound?
The value was 10/10.

What about the “Number of surviving mice” value (CT-26 tumor; Day 10) of the same compound?
Its value is 10/10.

And the “Number of surviving mice” value (CT-26 tumor; Day 14)?
The value was 10/10.

What about the “Number of surviving mice” value (CT-26 tumor; Day 17) of the same compound?
The value was 10/10.

And the “Number of surviving mice” value (CT-26 tumor; Day 20)?
The value was 10/10.

And the “Number of surviving mice” value (CT-26 tumor; Day 23)?
Its value is 10/10.

What about the “Number of surviving mice” value (CT-26 tumor; Day 35) of the same compound?
Its value is 8/10.

What about the “Number of surviving mice in the re-challenge” value (from here on “Number … in the re-challenge”) (CT-26 tumor; Rechallenge Day 0) of the same compound?
The value was 8/8.

What about the “Number … in the re-challenge” value (CT-26 tumor; Rechallenge Day 7) of the same compound?
The value was 8/8.

What about the “Number … in the re-challenge” value (CT-26 tumor; Rechallenge Day 11) of the same compound?
Its value is 8/8.

What about the “Number … in the re-challenge” value (CT-26 tumor; Rechallenge Day 14) of the same compound?
The value was 8/8.

And the “Number … in the re-challenge” value (CT-26 tumor; Rechallenge Day 17)?
The value was 8/8.

What about the “Number … in the re-challenge” value (CT-26 tumor; Rechallenge Day 20) of the same compound?
The value was 8/8.

What about the “Number … in the re-challenge” value (CT-26 tumor; Rechallenge Day 24) of the same compound?
The value was 8/8.

And the “Number … in the re-challenge” value (CT-26 tumor; Rechallenge Day 27)?
Its value is 8/8.

And the “Number … in the re-challenge” value (CT-26 tumor; Rechallenge Day 30)?
Its value is 8/8.

What about the “Number … in the re-challenge” value (CT-26 tumor; Rechallenge Day 33) of the same compound?
The value was 8/8.
